Assay results published in patent publication US20250197372A1 (priority 2020, published 2025).

Biological target: T1, recombinant alpha-glucosidase I (human full-length glucosidase I, Glu 1) (Homo sapiens, UniProt Q13724)
T1 construct: 6-His (C); made in house; host or cells: HEK-293T cells transduced with BacMam virus (virus raised in Sf9)
T1 sequence (Q13724 1-837): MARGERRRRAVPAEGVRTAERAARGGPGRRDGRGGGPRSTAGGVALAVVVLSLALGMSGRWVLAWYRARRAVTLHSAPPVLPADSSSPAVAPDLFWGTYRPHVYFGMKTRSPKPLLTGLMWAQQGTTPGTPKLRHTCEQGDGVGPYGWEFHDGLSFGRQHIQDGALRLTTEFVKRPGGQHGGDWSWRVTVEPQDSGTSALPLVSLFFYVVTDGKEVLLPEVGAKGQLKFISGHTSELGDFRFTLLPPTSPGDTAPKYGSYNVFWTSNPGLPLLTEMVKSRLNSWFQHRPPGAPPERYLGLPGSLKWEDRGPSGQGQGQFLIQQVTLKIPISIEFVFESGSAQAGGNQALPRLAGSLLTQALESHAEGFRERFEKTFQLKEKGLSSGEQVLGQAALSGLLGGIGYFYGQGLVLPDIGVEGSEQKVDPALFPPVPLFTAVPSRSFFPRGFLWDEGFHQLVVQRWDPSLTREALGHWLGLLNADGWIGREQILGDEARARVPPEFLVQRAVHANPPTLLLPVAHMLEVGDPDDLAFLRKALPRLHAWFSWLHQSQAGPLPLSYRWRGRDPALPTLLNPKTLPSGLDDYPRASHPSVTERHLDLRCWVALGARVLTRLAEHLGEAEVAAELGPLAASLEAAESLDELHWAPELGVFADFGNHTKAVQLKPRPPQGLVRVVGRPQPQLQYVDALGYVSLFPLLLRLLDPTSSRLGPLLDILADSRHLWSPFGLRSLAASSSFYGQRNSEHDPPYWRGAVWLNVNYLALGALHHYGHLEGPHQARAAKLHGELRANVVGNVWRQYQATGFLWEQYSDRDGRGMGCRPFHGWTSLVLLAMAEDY
Test: Alpha-glucosidase I assay (Amplex Red glucose detection, synthetic trisaccharide substrate)
Format: biochemical
Details: Glucosidase 1; read-out: Glu 1 IC50
In short: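 Human full-length glucosidase I, His-tagged, […] and Ni-purified. Enzyme preincubated with compound dilutions 60 min at 37° C, then synthetic trisaccharide substrate 90 min at 37° C; stopped with 1.5M Tris pH 8.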

Row | SMILES | IC50
1 | OC[C@@H]1[C@@H](O)[C@H](O)[C@@H](O)CN1CCCCCCNc1ccc(-c2ncccn2)cc1Cl [Compound 1228, (2R,3R,4R,5S)-1-(6-{[2-chloro-4-(pyrimidin-2-yl)phenyl]amino}hexyl)-2-(hydroxymethyl)piperidine-3,4,5-triol] | 19 nM
2 | N#Cc1ccc(NCCCCCCN2C[C@H](O)[C@@H](O)[C@H](O)[C@H]2CO)c([N+](=O)[O-])c1 [Compound 1304, 3-nitro-4-({6-[(2R,3R,4R,5S)-3,4,5-trihydroxy-2-(hydroxymethyl)piperidin-1-yl]hexyl}amino)benzonitrile] | 178 nM
3 | Cc1cc(NCc2ccc(CN3C[C@H](O)[C@@H](O)[C@H](O)[C@H]3CO)cc2)cc(-n2ccnn2)c1 [Compound 1323, (2R,3R,4R,5S)-2-(hydroxymethyl)-1-{[4-({[3-methyl-5-(1H-1,2,3-triazol-1-yl)phenyl]amino}methyl)phenyl]methyl}piperidine-3,4,5-triol] | 11 nM
4 | Cc1cc(NCc2cccc(CN3C[C@H](O)[C@@H](O)[C@H](O)[C@H]3CO)n2)cc(-c2ncccn2)c1 [Compound 1322, (2R,3R,4R,5S)-2-(hydroxymethyl)-1-{[6-({[3-methyl-5-(pyrimidin-2-yl)phenyl]amino}methyl)pyridin-2-yl]methyl}piperidine-3,4,5-triol] | 3120 nM
5 | [N-]=[N+]=Nc1ccc(NCCN2CC(OCCN3C[C@H](O)[C@@H](O)[C@H](O)[C@H]3CO)C2)c([N+](=O)[O-])c1 [Compound 1271, (2R,3R,4R,5S)-1-{2-[(1-{2-[(4-azido-2-nitrophenyl)amino]ethyl}azetidin-3-yl)oxy]ethyl}-2-(hydroxymethyl)piperidine-3,4,5-triol] | 1070 nM
6 | OC[C@@H]1[C@@H](O)[C@H](O)[C@@H](O)CN1Cc1ccc(CNc2ccc(Br)cc2)cc1 [Compound 1028, (2R,3R,4R,5S)-1-[(4-{[(4-bromophenyl)amino]methyl}phenyl)methyl]-2-(hydroxymethyl)piperidine-3,4,5-triol] | < 1 nM
7 | [N-]=[N+]=Nc1ccc(NCCC(O)C(O)CCN2C[C@H](O)[C@@H](O)[C@H](O)[C@H]2CO)c([N+](=O)[O-])c1 (stereo partly drawn) [Compound 1270, (2R,3R,4R,5S)-1-{6-[(4-azido-2-nitrophenyl)amino]-3,4-dihydroxy-hexyl}-2-(hydroxymethyl)piperidine-3,4,5-triol] | 358 nM
8 | OC[C@@H]1[C@@H](O)[C@H](O)[C@@H](O)CN1Cc1cnc(CNc2cc(-c3ncccn3)cc(C3CC3)c2)cn1 [Compound 1329, (2R,3R,4R,5S)-1-{[5-({[3-cyclopropyl-5-(pyrimidin-2-yl)phenyl]amino}methyl)pyrazin-2-yl]methyl}-2-(hydroxymethyl)piperidine-3,4,5-triol] | 1870 nM
9 | [N-]=[N+]=Nc1ccc(N2CCN(CCN3C[C@H](O)[C@@H](O)[C@H](O)[C@H]3CO)CC2)c([N+](=O)[O-])c1 [Compound 1254, (2R,3R,4R,5S)-1-{2-[4-(4-azido-2-nitrophenyl)piperazin-1-yl]ethyl}-2-(hydroxymethyl)piperidine-3,4,5-triol] | 6770 nM
10 | NC(=O)c1cc(-c2ncccn2)ccc1NCCCCCCN1C[C@H](O)[C@@H](O)[C@H](O)[C@H]1CO [Compound 1266, 5-(pyrimidin-2-yl)-2-({6-[(2R,3R,4R,5S)-3,4,5-trihydroxy-2-(hydroxymethyl)piperidin-1-yl]hexyl}amino)benzamide] | 180 nM
11 | [N-]=[N+]=Nc1ccc(NCCNC(=O)NCCN2C[C@H](O)[C@@H](O)[C@H](O)[C@H]2CO)c([N+](=O)[O-])c1 [Compound 1276, 1-{2-[(4-azido-2-nitrophenyl)amino]ethyl}-3-{2-[(2R,3R,4R,5S)-3,4,5-trihydroxy-2-(hydroxymethyl)piperidin-1-yl]ethyl}urea] | 2440 nM
12 | Cc1cc(NCc2ccc(CN3C[C@H](O)[C@@H](O)[C@H](O)[C@H]3CO)cc2)cc(-c2ncco2)c1 [Compound 1315, (2R,3R,4R,5S)-2-(hydroxymethyl)-1-{[4-({[3-methyl-5-(1,3-oxazol-2-yl)phenyl]amino}methyl)phenyl]methyl}piperidine-3,4,5-triol] | 40 nM
13 | Cc1cc(NCc2cccc(CN3C[C@H](O)[C@@H](O)[C@H](O)[C@H]3CO)c2)cc(-c2cccnn2)c1 [Compound 1034, (2R,3R,4R,5S)-2-(hydroxymethyl)-1-{[3-({[3-methyl-5-(pyridazin-3-yl)phenyl]amino}methyl)phenyl]methyl}piperidine-3,4,5-triol] | 20 nM
14 | Nc1ccc(NCCn2cc(CCN3C[C@H](O)[C@@H](O)[C@H](O)[C@H]3CO)nn2)c([N+](=O)[O-])c1Cl [Compound 1253, (2R,3R,4R,5S)-1-[2-(1-{2-[(4-amino-3-chloro-2-nitrophenyl)amino]ethyl}-1H-1,2,3-triazol-4-yl)ethyl]-2-(hydroxymethyl)piperidine-3,4,5-triol] | 1750 nM
15 | N#CCc1ccc(NCCCCCCN2C[C@H](O)[C@@H](O)[C@H](O)[C@H]2CO)c([N+](=O)[O-])c1 [Compound 1299, 2-[3-nitro-4-({6-[(2R,3R,4R,5S)-3,4,5-trihydroxy-2-(hydroxymethyl)piperidin-1-yl]hexyl}amino)phenyl]acetonitrile] | 189 nM
16 | Cc1cc(NCc2cccc(CN3C[C@H](O)[C@@H](O)[C@H](O)[C@H]3CO)n2)cc(-c2ccco2)c1 [Compound 1334, (2R,3R,4R,5S)-1-{[6-({[3-(furan-2-yl)-5-methylphenyl]amino}methyl)pyridin-2-yl]methyl}-2-(hydroxymethyl)piperidine-3,4,5-triol] | 1080 nM
17 | COc1ccc(C#CCCCCCN2C[C@H](O)[C@@H](O)[C@H](O)[C@H]2CO)cc1 [Compound 1338, (2R,3R,4R,5S)-2-(hydroxymethyl)-1-[7-(4-methoxyphenyl)hept-6-yn-1-yl]piperidine-3,4,5-triol] | 999 nM
18 | [N-]=[N+]=Nc1ccc(NCCCCCCN2C[C@H](O)[C@@H](O)[C@H](O)[C@H]2CO)c(C(N)=O)c1 [Compound 1296, 5-azido-2-({6-[(2R,3R,4R,5S)-3,4,5-trihydroxy-2-(hydroxymethyl)piperidin-1-yl]hexyl}amino)benzamide] | 142 nM
19 | Cc1cc(Br)cc(NCc2ccc(CN3C[C@H](O)[C@@H](O)[C@H](O)[C@H]3CO)cc2)c1 [Compound 1024, (2R,3R,4R,5S)-1-[(4-{[(3-bromo-5-methylphenyl)amino]methyl}phenyl)methyl]-2-(hydroxymethyl)piperidine-3,4,5-triol] | 8 nM
20 | [N-]=[N+]=Nc1ccc(NCCn2cc(CCN3C[C@H](O)[C@@H](O)[C@H](O)[C@H]3CO)nn2)c([N+](=O)[O-])c1 [Compound 1272, (2R,3R,4R,5S)-1-[2-(1-{2-[(4-azido-2-nitrophenyl)amino]ethyl}-1H-1,2,3-triazol-4-yl)ethyl]-2-(hydroxymethyl)piperidine-3,4,5-triol] | 1800 nM
21 | CN(C)Cc1ccc(NCCCCCCN2C[C@H](O)[C@@H](O)[C@H](O)[C@H]2CO)c(C(F)(F)F)c1 [Compound 1259, (2R,3R,4R,5S)-1-[6-({4-[(dimethylamino)methyl]-2-(trifluoromethyl)phenyl}amino)hexyl]-2-(hydroxymethyl)piperidine-3,4,5-triol] | 330 nM
22 | CN(Cc1cccc(CN2C[C@H](O)[C@@H](O)[C@H](O)[C@H]2CO)c1)c1ccc(CN2CCCO2)cc1[N+](=O)[O-] [Compound 1020] | 118 nM
23 | Cc1cc(-c2ncccn2)ccc1NCCCCCCN1C[C@H](O)[C@@H](O)[C@H](O)[C@H]1CO [Compound 1233, (2R,3R,4R,5S)-2-(hydroxymethyl)-1-(6-{[2-methyl-4-(pyrimidin-2-yl)phenyl]amino}hexyl)piperidine-3,4,5-triol] | 123 nM
24 | CC#Cc1ccc(NCCCCCCN2C[C@H](O)[C@@H](O)[C@H](O)[C@H]2CO)c([N+](=O)[O-])c1 [Compound 1290, (2R,3R,4R,5S)-2-(hydroxymethyl)-1-(6-{[2-nitro-4-(prop-1-yn-1-yl)phenyl]amino}hexyl)piperidine-3,4,5-triol] | 36 nM
25 | COCCc1ccc(CCCN2C[C@H](O)[C@@H](O)[C@H](O)[C@H]2CO)cc1 [Compound 1308, (2R,3R,4R,5S)-2-(hydroxymethyl)-1-{3-[4-(2-methoxyethyl)phenyl]propyl}piperidine-3,4,5-triol] | > 100000 nM
26 | COc1ccc(CCCCCCCN2C[C@H](O)[C@@H](O)[C@H](O)[C@H]2CO)cc1 [Compound 1309, (2R,3R,4R,5S)-2-(hydroxymethyl)-1-[7-(4-methoxyphenyl)heptyl]piperidine-3,4,5-triol] | 700 nM
27 | COc1cc(NCCCCCCN2C[C@H](O)[C@@H](O)[C@H](O)[C@H]2CO)cc(-c2ncc[nH]2)c1 [Compound 1219, (2R,3R,4R,5S)-2-(hydroxymethyl)-1-(6-{[3-(1H-imidazol-2-yl)-5-methoxyphenyl]amino}hexyl)piperidine-3,4,5-triol] | 93 nM
